# Test results: ChEMBL document CHEMBL1151063, “Synthesis and antibacterial activity of 2-functionalized-vinyl 1-methylcarbapenems and related compounds” (1993)
# How the values were obtained:
# Format in all cases: functional
# [1] = test system: Escherichia coli; test: Antibacterial activity against Escherichia coli NIHJ JC-2
# [2] = test system: Staphylococcus aureus; test: Antibacterial activity against Staphylococcus aureus FDA JC-1
# [3] = test system: Pseudomonas aeruginosa; test: Antibacterial activity against Pseudomonas aeruginosa SR24
# [4] = test system: Enterococcus faecalis; test: Antibacterial activity against Streptococcus faecalis SR 1004
# [5] = test system: Staphylococcus aureus; test: Minimum inhibitory concentration for antibacterial activity against high resistant group of methicillin-resistant Staphylococcus aureus SR-3626(HR)
# [6] = test system: Staphylococcus aureus; test: Minimum inhibitory concentration for antibacterial activity against low resistant group of methicillin-resistant Staphylococcus aureus SR-3131(LR)
# [7] = test system: Enterobacter cloacae; test: Minimum inhibitory concentration for antibacterial activity against Enterobacter cloacae AI 3047
# [8] = test system: Serratia marcescens; test: Minimum inhibitory concentration for antibacterial activity against Serratia marcescens A13880
# [9] = test system: Proteus vulgaris; test: Minimum inhibitory concentration for antibacterial activity against Proteus vulgaris CN-329, activity expressed as MIC
# [10] = test system: Proteus vulgaris; test: Minimum inhibitory concentration for antibacterial activity against Proteus vulgaris CN-329
Compound,MIC [1] [µg/mL],MIC [2] [µg/mL],MIC [3] [µg/mL],MIC [4] [µg/mL],MIC [5] [µg/mL],MIC [6] [µg/mL],MIC [7] [µg/mL],MIC [8] [µg/mL],MIC [9] [µg/mL],MIC [10] [µg/mL]
C[C@@H](O)[C@H]1C(=O)N2C(C(=O)[O-])=C(/C=C/c3cc[n+](C)cc3)[C@H](C)[C@H]12,0.4,0.05,25,1.6,–,–,–,–,–,–
C[C@@H](O)[C@H]1C(=O)N2C(C(=O)[O-])=C(/C=C/c3cccc[n+]3C)[C@H](C)[C@H]12,1.6,0.1,50,6.3,–,–,–,–,–,–
C[C@@H](O)[C@H]1C(=O)N2C(C(=O)[O-])=C(C[n+]3cccc(N)c3)[C@H](C)[C@H]12,0.2,0.006,1.6,6.3,–,–,–,–,–,–
C[C@@H](O)[C@H]1C(=O)N2C(C(=O)[O-])=C(/C=C/CSc3nncs3)[C@H](C)[C@H]12.[Na+],3.1,0.02,100,1.6,–,–,–,–,–,–
C[C@@H]([O-])[C@H]1C(=O)N2C(C(=O)[O-])=C(/C=C/C[N+]34CCC(CC3)CC4)[C@H](C)[C@H]12.[Na+],0.2,0.02,50,0.8,–,–,–,–,–,–
C[C@@H](O)[C@H]1C(=O)N2C(C(=O)[O-])=C(C[n+]3cccc(C(N)=O)c3)[C@H](C)[C@H]12,0.4,0.02,1.6,25,–,–,–,–,–,–
C[C@@H](O)[C@H]1C(=O)N2C(C(=O)[O-])=C(C[n+]3ccc(-c4cnco4)cc3)[C@H](C)[C@H]12,0.2,0.01,1.6,6.3,–,–,–,–,–,–
C[C@@H](O)[C@H]1C(=O)N2C(C(=O)[O-])=C(C[n+]3ccccc3)[C@H](C)[C@H]12,0.1,< 0.006,1.6,6.3,50,0.1,0.2,1.6,0.4,–
C[C@@H](O)[C@H]1C(=O)N2C(C(=O)[O-])=C(/C=C/C[n+]3ccccc3)[C@H](C)[C@H]12,0.05,0.006,1.6,0.4,50,0.05,0.2,0.8,–,0.2
C[C@@H](O)[C@H]1C(=O)N2C(C(=O)O)=C(SCCNC=N)C[C@H]12 [IMIPENEM ANHYDROUS],0.1,0.006,1.6,1.6,50,0.05,0.4,0.8,–,0.4
C[C@@H]([O-])[C@H]1C(=O)N2C(C(=O)[O-])=C(/C=C/CSc3cc[n+](C)cc3)[C@H](C)[C@H]12.[Na+],0.2,0.01,12.5,0.4,–,–,–,–,–,–
C[C@@H](O)[C@H]1C(=O)N2C(C(=O)[O-])=C(/C=C/c3ccc[n+](C)c3)[C@H](C)[C@H]12,0.1,0.01,25,0.2,–,–,–,–,–,–
Cc1ccc[n+](CC2=C(C(=O)[O-])N3C(=O)[C@H]([C@@H](C)O)[C@H]3[C@H]2C)c1,0.2,0.01,1.6,12.5,–,–,–,–,–,–
C[C@@H](O)[C@H]1C(=O)N2C(C(=O)[O-])=C(C[n+]3ccc(C(N)=O)cc3)[C@H](C)[C@H]12,0.4,0.02,1.6,25,–,–,–,–,–,–
C/C(=C\C1=C(C(=O)[O-])N2C(=O)[C@H]([C@@H](C)O)[C@H]2[C@H]1C)C[n+]1ccccc1,0.1,0.02,6.3,0.8,–,–,–,–,–,–
C[C@@H]([O-])[C@H]1C(=O)N2C(C(=O)[O-])=C(/C=C/Cn3cc[n+]4ccccc34)[C@H](C)[C@H]12.[Na+],0.1,0.02,25,0.8,–,–,–,–,–,–
C[C@@H](O)[C@H]1C(=O)N2C(C(=O)[O-])=C(/C=C/COC(N)=O)[C@H](C)[C@H]12.[Na+],0.2,0.02,50,1.6,–,–,–,–,–,–
